“Also recorded” adds a separate entry of the source. Each block holds one molecule with its values, some of them ahead of it.
Experiments:
[1] = target: T1, Fdc1/Pad1 (Saccharomyces cerevisiae, UniProt Q03034); experiment: Fdc1/Pad1 substrate range, in vivo and in vitro (summary); settings: summary of substrate range
T1 construct: His (N); made in house; host or cells: E. coli Bl21(DE3), pCOLAduet-1
T1 sequence (Q03034 1-503): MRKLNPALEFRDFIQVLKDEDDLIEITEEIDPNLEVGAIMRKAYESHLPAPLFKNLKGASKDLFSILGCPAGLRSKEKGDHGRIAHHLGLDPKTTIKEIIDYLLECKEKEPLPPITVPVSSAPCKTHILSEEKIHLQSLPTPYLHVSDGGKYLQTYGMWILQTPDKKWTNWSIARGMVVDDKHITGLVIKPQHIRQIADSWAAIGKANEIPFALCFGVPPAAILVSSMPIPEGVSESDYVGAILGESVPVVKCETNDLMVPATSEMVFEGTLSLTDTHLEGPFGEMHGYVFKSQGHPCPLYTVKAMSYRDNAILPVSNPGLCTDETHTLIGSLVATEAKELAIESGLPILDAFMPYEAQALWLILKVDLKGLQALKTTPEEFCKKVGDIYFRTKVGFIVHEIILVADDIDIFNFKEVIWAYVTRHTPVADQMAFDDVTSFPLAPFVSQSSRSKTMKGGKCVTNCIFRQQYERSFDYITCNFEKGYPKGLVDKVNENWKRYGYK
From the text: To assess what limit the enzyme imposes on the extent of unsaturation, the inventors tested a wide range of saturated and unsaturated substrates, both in vivo and in vitro.

[2] = target: T2, purified His-Fdc1/Pad1 (Saccharomyces cerevisiae, UniProt Q03034); experiment: UV-VIS spectroscopy of substrate consumption, Michaelis Menten parameters; settings: for Kcat: substrate of purified His-Fdc1/Pad1, pH 6, 20° C.
T2 sequence (Q03034 1-503): T1 sequence (Q03034 1-503)
Method: A direct observation of enzyme activity is possible by recording UV-VIS spectra of the solution. Aromatic substrates and aliphatic substrates with two or more double bonds conjugated to the acidic group absorb in the UV region. The activity of purified His-Fdc1/Pad1 was assayed against varying concentrations of these substrates in 400 μl 50 mM KCl, 50 mM NaPi pH 6 in a 1 mm pathlength cuvette at 20° C. Substrate consumption was monitored using a Cary 50 Bio spectrophotometer (varian) either in scanning mode, or at a specific wavelength for kinetic experiments. The rate of cinnamic acid consumption was monitored at 270 nm, ferulic acid at 312 nm, 2,4-pentadienoic acid at 242 nm, sorbic acid at 260 nm, 2,4,6-octatrienoic acid at 290 nm and 2,4-nonadienoic acid at 260 nm.

[3] = target: T3, fdc1/pad1 in pCOLAduet in E. coli Bl21(DE3) (Saccharomyces cerevisiae, UniProt Q03034); experiment: head space GC-MS product analysis, in vivo (induced cultures); type: cell-based; settings: E. coli cultures expressing Fdc1/Pad1, 25° C.
T3 construct: expressed in transfected cells; host or cells: E. coli Bl21(DE3) carrying fdc1 (MCS1) and pad1 (MCS2) in pCOLAduet-1
T3 sequence (Q03034 1-503): T1 sequence (Q03034 1-503)
Method: For in vivo analysis, fdc1/pad1 in pCOLAduet and empty pCOLAduet in E. coli Bl21(DE3) were grown in LB supplemented with 40 μg/ml kanamycin at 37° C. to an OD600 of about 0.7 and induced with […] IPTG. 11.5 ml induced culture and a solution of 3.5 ml 20 mM substrate in distilled water with a pH of about 7.5 were placed in 20 ml head space vials with crimp top seals. Cultures were incubated in shaking incubator at 25° C. for about 12-48 hours.
(§1) Samples were analysed by GC-MS using a Thermofisher DSQ II. Vials were incubated for 3 minutes at 80° C. with agitation. 0.5 ml headspace was injected with a 105° C. syringe and a split ratio of 1/10. Analytes were separated on a 30 m 0.25 mm 0.25μ ZB5-MS (commercially obtainable from Zebron) column run (alternatively a 30 m×0.25 mm i.d.×0.1μ Varian VF-5HT column may be used) with a flow of 1.5 ml/min He. Oven temperature was held at 35° C. for 2 minutes before being ramped up to 250° C. at 10° C./min. Products were identified by searching for the corresponding mass peak.
As described above, for in vivo studies, Fdc1/Pad1 in pCOLAduet-1 and empty pCOLAduet-1 vector were transformed into E. coli Bl21(DE3). Cultures were grown in LB supplemented with 40 μg/ml kanamycin at 37° C. to OD600˜0.7 and induced with 1 mM IPTG. 11.5 ml of induced culture was added to 3.5 ml 20 mM substrate pH ˜7.5 per tube in a sealed headspace vial.
(§2) All Fdc1/Pad1 reactions were incubated in a shaking incubator at 25° C. for ˜36 hours.
as §1, with “(or” for “(commercially obtainable from Zebron) column run (alternatively a”, “VF-5HT)” for “VF-5HT”, “run” for “may be used)”, “raised” for “ramped up”

[4] = target: T2, purified His-Fdc1/Pad1; experiment: head space GC-MS product analysis, in vitro reactions; type: biochemical; design: His (N); made in house; host or cells: E. coli Bl21(DE3), pCOLAduet-1 co-expression plasmid, Ni-NTA purified; settings: purified enzyme, 25° C.
Method: For in vitro analysis, purified His-Fdc1/Pad1 polypeptide was buffer exchanged into a solution of 150 mM NaCl and 50 mM NaPi in water with pH 7.5. Subsequently solutions of 11.5 ml 150 mM NaCl and 50 mM NaPi with pH 7.5, of 3.5 ml 20 mM substrate with pH 7.5 and of 150 μl 30 mg/ml enzyme in water or buffer were added to 20 ml head space vials with crimp top seals. Reactions were incubated with shaking at 25° C. for about 12-48 hours.
as §1
For in vitro reactions, Fdc1/Pad1 partially purified by Ni^2+ affinity and buffer exchanged into 150 mM NaCl, 50 mM NaPi pH 7.5. 11.5 ml […] pH 7.5, 3.5 ml 20 mM substrate pH 7.5 and 150 μl 30 mg/ml enzyme or enzyme free buffer were added to a sealed headspace vial.
as §2
as §1, with “(or” for “(commercially obtainable from Zebron) column run (alternatively a”, “VF-5HT)” for “VF-5HT”, “run” for “may be used)”, “raised” for “ramped up”

[5] = target: E. coli Bl21(DE3) cells containing the fdc1/pad1 co-expression plasmid (Saccharomyces cerevisiae, UniProt Q03034); settings: 6 mM sorbic acid, pH 6.2, overnight at 37° C.
Method: In vivo enzyme activity assays were carried out using exogenous supplied substrates in the media (i.e. sorbic acid).
For in vivo pH assays, LB agar plates were supplemented with […] kanamycin, 6 mM sorbic acid and 0.004% w/v phenol red in distilled water and buffered to pH 6.2. E. coli Bl21(DE3) cells containing either the co-expression plasmid or empty pCOLAduet-1 were inoculated onto the plate and grown overnight at 37° C. […] This allows rapid visual indication of enzyme activity levels.

[6] = substrate: O=C(O)C=Cc1ccccc1; experiment: purified protein, by the assay type; settings: other: substrate of purified His-Fdc1/Pad1, pH 6, 20° C.
[7] = substrate: C=CC=CC(=O)O; experiment: purified protein, by the assay type; settings: other: substrate of purified His-Fdc1/Pad1, pH 6, 20° C.
[8] = substrate: COc1cc(/C=C/C(=O)O)ccc1O; experiment: purified protein, by the assay type; settings: other: substrate of purified His-Fdc1/Pad1, pH 6, 20° C.
[9] = substrate: C/C=C/C=C/C(=O)O; experiment: purified protein, by the assay type; settings: other: substrate of purified His-Fdc1/Pad1, pH 6, 20° C.
[10] = substrate: CC=CC=CC=CC(=O)O; experiment: purified protein, by the assay type; settings: other: substrate of purified His-Fdc1/Pad1, pH 6, 20° C.
[11] = substrate: CCCCC=CC=CC(=O)O; experiment: purified protein, by the assay type; settings: other: substrate of purified His-Fdc1/Pad1, pH 6, 20° C.

Molecule: CC=CC=CC=CC(=O)O [2,4,6-Octatrienoic acid]
in vitro and in vivo activity (decarboxylation) [1]: high
enzyme dependent spectral changes / conversion by UV-VIS [2]: enzyme catalysed conversion

Molecule: C=CC=CC(=O)O [2,4-Pentadienoic acid]
in vitro and in vivo activity (decarboxylation) [1]: high

Molecule: CCCCC=CC(=O)O [2-Heptenoic acid]
decarboxylation product formation by GC-MS, in vivo [3]: only been detected in vivo; also recorded: In vivo activity has also been detected

Molecule: O=C(O)C=Cc1ccccc1 [Cinnamic acid]
decarboxylation product formation by GC-MS, in vitro [4]: confirmed product formation; also recorded: confirming styrene production
in vitro and in vivo activity (decarboxylation) [1]: high
decarboxylation product formation by GC-MS, in vivo [3]: verified the presence of the anticipated decarboxylation products; also recorded: confirming styrene production
Kcat [2]: 34.394 s⁻¹

Molecule: COc1cc(/C=C/C(=O)O)ccc1O [Ferulic acid]
decarboxylation product formation by GC-MS, in vitro [4]: confirmed product formation
in vitro and in vivo activity (decarboxylation) [1]: high
decarboxylation product formation by GC-MS, in vivo [3]: verified the presence of the anticipated decarboxylation products
Kcat [2]: 30.774 s⁻¹

Molecule: C/C=C/C=C/C(=O)O [Sorbic acid]
decarboxylation product formation by GC-MS, in vitro [4]: confirmed product formation
substrate dependent alkalinification in vivo [5]: yellow to red colour change observed
in vitro and in vivo activity (decarboxylation) [1]: high
decarboxylation product formation by GC-MS, in vivo [3]: verified the presence of the anticipated decarboxylation products
Kcat [2]: 2.793 s⁻¹

B1: purified His-Fdc1/Pad1 (Saccharomyces cerevisiae S288C) (protein)
chain: T1 sequence (Q03034 1-503)
Km [6]: 21 µM
Km [7]: 109 µM
kcat [7]: 0.336 s⁻¹
Km [8]: 203 µM
Km [9]: 81 µM
Km [10]: 213 µM
kcat [10]: 99 s⁻¹
Km [11]: 221 µM
kcat [11]: 0.588 s⁻¹

Continued, in another order:

in vitro and in vivo activity (decarboxylation) [1]: high
Molecule: CCCCC=CC=CC(=O)O [2,4-Nonadienoic acid]

in vitro and in vivo activity (decarboxylation) [1]: Lower level activity
decarboxylation product formation by GC-MS, in vivo [3]: also been detected in vivo
Molecule: CCCC=CC(=O)O [2-Hexenoic acid]
decarboxylation product formation by GC-MS, in vitro [4]: 1-pentene product has been detected and enzyme-catalysed production of 1-pentene

decarboxylation product formation by GC-MS, in vivo [3]: only been detected in vivo
decarboxylation product formation by GC-MS, in vivo ([3]; listed as 2-octenoic acids): In vivo activity has also been detected
Molecule: CCCCCC=CC(=O)O [2-Octenoic acid]

— patent US9157099B2, “Methods for preparing a hydrocarbon” (SHELL OIL COMPANY, priority 2012, dated 2015)
